Assay results published in patent US5091521A, “Cis-platinum complexes, a process for the preparation thereof, and pharmaceuticals containing these compounds” (priority 1986, dated 1992).

How the values were obtained:
[1] = tested on: L1210 leukemia; assay: In vivo activity of the platinum complexes against L1210 leukemia of the mouse; set-up: optimum Dose (greatest antitumoral effect), L1210: unit not given here; details: for T/C % L1210 (at optimum dose): mean survival time vs untreated control; for cytostatic activity in the "in vivo" test using the L1210 tumor cell line: in words
Method: c) In vivo activity of the platinum complexes against L1210 leukemia of the mouse
Ascitic fluid is removed under sterile conditions from DBA2 mice (female, 18-20 g) 7 days after implantation. The ascites is washed three times with PBS, counted, and adjusted to a cell number of 10^6 in 0.2 ml of PBS.
10^6 cells, suspended in 0.2 ml of PBS, are subsequently injected intraperitoneally into DBF1 mice (female, 18-20 g). 6 animals per group are employed for each substance concentration or as control.
Determination of the antitumoral activity
a) The animals are weighed on days 1 and 5 after injection of the test substance. A weight loss of more than 20% on day 5 is regarded as an indicator of a toxic substance action.
b) At the end of the experiment (death of all animals or surviving animals on day 60), the mean survival time of the animals in each group is determined, so long as at least 65% of the animals were still living on day 5 of the experiment. The average survival time is determined exclusively for animals dying during the experiment. Long-term survivors (LTS) are not taken into account in this calculation and are specified separately.
From the mean survival time (MST) of the […] group and of the control group (MSTc), the antitumoral activity (T/C) for each substance concentration is determined in per cent of the untreated control from the following formula: [formula]
The dose which causes the greatest antitumoral effect (optimal dosage) and in each case one dose step above and below this dose are collated in Table 1. Animals which are still living on day 60 of the experiment are listed separately as "long-term survivors".

[2] = tested on: L1210 leukemia cells; assay: Colonization by L1210 leukemia cells in soft agar (cytostatic activity in vitro); format: cell-based, mouse; details: L1210 colony formation in soft agar, 7 days
Method: The cytostatic activity of the compounds according to the invention is determined on L1210 leukemia cells of the mouse. In detail, the following test systems were used:
a) Colonization by L1210 leukemia cells in soft agar
In this test cytostatically active substances cause the number of colonies observed to be reduced compared to an untreated control. In detail, the test is carried out as follows:
500 leukemia cells per plate are incubated for 1 hour at 37° C. with different concentrations of the test substance. The cells are subsequently washed twice with McCoy 5A medium and finally poured out into petri dishes after adding 0.3% of agar. Controls are incubated only with fresh medium. Instead of incubating for one hour, different concentrations and test substances are in many cases mixed with the upper agar layer in order to thus achieve continuous exposition of the cells over the entire incubation time. After solidification of the agar, the plates are incubated in an incubator for 7 days at 37° C. (5% by volume of CO2, 95% relative atmospheric humidity). The number of colonies produced with a diameter of more than 60 μm is subsequently counted. The results are given as the number of colonies in the treated agar plate, in per cent of the untreated control. From the dose-action curve thus attained, the IC50 is determined as a measure of the activity of the substance.

[3] = Solubility in water; format: physicochemical
[4] = tested on: NMRI mice; assay: Determination of the acute toxicity; format: in vivo, mouse; details: 1 × i.p., survival on day 14
Method: b) Determination of the acute toxicity
In order to determine the acute toxicity, NMRI mice are injected intraperitoneally on day 0 with various doses of a test substance, dissolved in 0.5 ml of 5% glucose solution. Control groups receive only 0.5 ml of 5% strength glucose solution. 5 mice are used per concentration of the test substance. On day 14, the number of surviving mice is determined, and the LD5, LD50 and LD95 are determined from this according to the Lichtfield Wilcoxon method.

[5] = tested on: tumor cells which are resistant towards cis-platin; assay: Cross resistance to cis-diamminedichloroplatinum(II) in vitro / activity in cisplatin-resistant tumor cells; format: cell-based; details: in words
[6] = treatment program 3 × i.p./i.p.
[7] = treatment program 5 × i.p./i.p.
[8] = treatment program 2 × i.p./i.p.

Compound | optimum Dose (greatest antitumoral effect), L1210 [1, 6] | T/C % L1210 (at optimum dose) [1, 6] [%] | IC50 [2] [µg/mL] | Solubility in water [3] [mg/mL] | LD50 [4] [mg/kg] | further results
N.N.[Cl][Pt][Cl] [Cisplatin, cis-diamminedichloroplatinum (II), reference compound] | 4 | 157 | 0.04 | – | – | –
COCC(C)(CN)CN.[Cl][Pt][Cl] [Compound 11, N,N'-(2-methoxymethyl-2-methyl-1,3-propanediamine)dichloro-platinum(II)] | – | – | 1.4 | 3 | – | –
CCC(CN)(CN)COC.[Cl][Pt][Cl] [Compound 12, N,N'-(2-ethyl-2-methoxymethyl-1,3-propanediamine)dichloro-platinum(II)] | 3 | 227 | 0.5 | – | 19 | cytostatic activity in the "in vivo" test using the L1210 tumor cell line [1]: high cytostatic activity; cross resistance in vitro to cis-diamminedichloroplatinum(II) [5]: only partially cross resistant
CC(CN)(CN)COCC(O)CO.[Cl][Pt][Cl] (stereo not drawn) [Compound 13, N,N'-(2-(2',3'-dihydroxypropyloxymethyl)-2-methyl-1,3-propanediamine)dichloroplatinum(II)] | – | – | 1.25 | 25 | 57.3 | optimum Dose (greatest antitumoral effect), L1210 [1, 7]: 8; T/C % L1210 (at optimum dose) [1, 7]: 156%
COCC(O)COCC(C)(CN)CN.[Cl][Pt][Cl] (stereo not drawn) [Compound 14, N,N'-(2-(2'-hydroxy-3'-methoxypropyloxymethyl)-2-methyl-1,3-propanediamine)dichloroplatinum(II)] | 4 | 168 | 0.75 | 16 | 57.1 | –
CC(CN)(CN)CO[C@@H]1CC[C@H](O)[C@@H](CO)O1.[Cl][Pt][Cl] [Compound 15, N,N'-(2-(2',3'-didesoxy-alpha-D-erythrohexopyranosyloxy-methyl)-2-methyl-1,3-propanediamine)dichloroplatinum(II)] | – | – | 2.9 | 17 | 1 to 5 | –
CC(=O)NC1(CO)C[NH][Pt]([Cl])([Cl])[NH]C1 [Compound 17, N,N'-(2-acetamido-2-hydroxymethyl-1,3-propanediamine)di-chloroplatinum(II)] | 30 | 113 | 1.1 | 10 | 50 to 100 | –
COCC(C)(CN)CN.O=C([O-])CC(=O)[O-].[Pt+2] [Compound 30, N,N'-(2-methyloxymethyl-2-methyl-1,3-propanediamine)platinum(II) malonate] | – | – | 1.4 | – | – | –
COCC(C)(CN)CN.O=C([O-])C1(C(=O)[O-])CCC1.[Pt+2] [Compound 31, N,N'-(2-methyloxymethyl-2-methyl-1,3-propanediamine)platinum(II) 1,1-cyclobutanedicarboxylate] | – | – | 2.6 | 15 | 250 | optimum Dose (greatest antitumoral effect), L1210 [1, 8]: 112; LTS (Longterm survivor), L1210 ([1]; treatment program 2 × i.p./i.p., optimum dose, animals living on day 60): 3/6; T/C % L1210 (at optimum dose) [1, 8]: 226%
CCC(CN)(CN)COC.O=C([O-])C1(C(=O)[O-])CCC1.[Pt+2] [Compound 32, N,N'-(2-ethyl-2-methyloxymethyl-1,3-propanediamine)platinum(II) 1,1-cyclobutanedicarboxylate] | – | – | 3.6 | 70 | 437 | T/C % L1210 (at optimum dose) [1, 7]: 194%
CCC(CN)(CN)COC.O=C([O-])CC(=O)[O-].[Pt+2] [corresponding malonate derivative] | – | – | – | – | – | cytostatic activity in the "in vivo" test using the L1210 tumor cell line [1]: high cytostatic activity; cross resistance in vitro to cis-diamminedichloroplatinum(II) [5]: only partially cross resistant
